Assay results taken from patent US12390472B2 (SUZHOU SINOVENT PHARMACEUTICALS CO., LTD., priority 2018, dated 2025).
Where two headings read alike, the source gives them in different places.

Legend:
EZH2 enzyme complex = EZH2 enzyme complex (Homo sapiens (Human), UniProt Q15910); assay: Test on EZH2 inhibitory activity (TR-FRET); format: biochemical; conditions: EZH2 enzyme complex 25 ng/uL, histone H3 peptide 4 uM, SAM 2 uM, 300 min; read-out: IC50 of EZH2 inhibition
Description: • EZH2 enzyme complex: 25 ng/uL • Histone H3 peptide substrate: 4 uM • SAM: 2 uM • Reaction time: 300 min Procedures • 1. Each compound disclosed herein was diluted with 1×HMT buffer and transferred to a 384-well assay plate at 3 uL per well; • 2. The EZH2 enzyme solution was prepared with 1×HMT buffer and transferred to the 384-well assay plate at 2 uL per well; • 3. The above assay plate was incubated for 30 min; • 4. A mixture solution of SAM and histone H3 peptide substrate at 2-fold concentration was prepared with 4×HMT buffer; • 5. 5 uL of the mixture solution of SAM and substrate was added to each well of the assay plate to react at room temperature, and the assay plate was sealed with plastic; • 6. After incubation for 5 h, 10 uL of TR-FRET detection buffer containing Tb-labeled antibody and dye-labeled receptor was added to each well of the assay plate; • 7. After incubation for 1 h at room temperature, the assay plate was detected; • 8.

Pfeiffer = assay: Methylated lysine of histone-H3 (H3K27Me3) detection by ELISA, Pfeiffer cells; format: cell-based, human; conditions: 7 days treatment, H3K27Me3 normalized to total histone-3, read-out: IC50 of cell methylation, Pfeiffer
Description: (§1) The operations for adherent cells and suspension cells cultured in 96-well plates were slightly different after they had been treated with compound (4-fold dilution 20 uM-0.009 nM, 3 duplicate wells) for 7 days, and the operations are summarized as follows: For adherent cells, after discarding the medium, 75 uL of 1-fold hypotonic lysis buffer (10 mM Tris-HCl, pH 7.5, containing halt protease inhibitor and PMSF with a final concentration of 1 mM) was added; the plate was frozen at −80° C. for at least 1 h or overnight; once the plate was taken away from the −80° C. environment, 120 uL (to a final volume of about 195 uL) of 1-fold hypotonic lysis buffer (containing protease inhibitor) was added, and the plate was thawed at room temperature and shaken for 2 min for mixing; and 8 uL (to a final volume of about 203 uL) of 2.5 M NaCl was added to each well to a final NaCl concentration of 100 mM and then the plate was shaken for an additional 2 min for mixing.
(§2) For suspension cells (final volume of medium was 100 uL/well), 25 uL of 5-fold hypotonic lysis buffer (50 mM Tris-HCl, pH 7.5, containing halt protease inhibitor and PMSF with a final concentration of 1 mM) was added, and the plate was frozen at −80° C. for at least 1 h or overnight. Once the plate was taken away from the −80° C. environment, 20 uL of 0.625 M NaCl was added to each well to a final NaCl concentration of about 100 mM, and the mixture was mixed well.
(§3) 75 uL or 100 uL of sample (with duplicate wells provided) was added to two 96-well ELISA plates (ThermoFisher Scientific; Immulon 4HBX 3885) and the plates were coated with total protein lysate and incubated overnight at 4° C. 50 uL of lysate was retained for protein quantitation if necessary. The sealing of the plates must be ensured. The plates were washed twice with 300 uL of 1×PBST (PBS containing 0.05% Tween 20) per well. Each well was blocked with 300 uL of dilution (PBS+2% BSA+0.05% Tween 20), incubated for 2 h at room temperature, and washed twice with 1×PBST. Primary antibodies were diluted with a dilution solution containing 1% BSA+0.05% Tween 20. 75-100 uL of anti-H3K27Me3 antibody (CST; 9733; 50% glycerol stock, 1:1,000) or anti-total histone-3 antibody (Abcam; ab1791; 50% glycerol stock, 1:10,000) was added to each well. The plates were incubated for 90 min at room temperature or incubated overnight at 4° C. The plates were washed three times with 1×PBST. 75-100 uL of anti-Rb-IgG-HRP secondary antibody (Cell Signaling Technology; 7074) was added per well, 1:2000 diluted secondary antibody for anti-H3K 27Me3 plate and 1:6000 diluted secondary antibody for anti-histone total histone-3 plate. The plates were incubated at room temperature for 90 min. The plate assayed with anti-histone-3 antibody was used to normalize the data for the corresponding plate assayed with anti-H3K 27me3. The plates must be washed at least three times with 1×PBST after primary or secondary antibody incubation. The plates were assayed by adding 75-100 uL of 3,3′,5,5′-tetramethylbenzidine substrate (CST or ThermoFisher Scientific; TMBS) per well and incubated away from light for 30 min at 37° C. The reaction was terminated by adding 100 uL of 0.5 M H2SO4 per well. The absorbance was read at 450 nm. Curve fitting was performed using Graph Pad program.

WSU-DLCL2 = assay: Methylated lysine of histone-H3 (H3K27Me3) detection by ELISA, WSU-DLCL2 cells; format: cell-based; conditions: WSU-DLCL2, 7 days treatment, H3K27Me3 normalized to total histone-3, read-out: IC50 of cell methylation, WSU-DLCL2
Description: as §1, §2, §3

Chain of EZH2 enzyme complex (Q15910 whole entry): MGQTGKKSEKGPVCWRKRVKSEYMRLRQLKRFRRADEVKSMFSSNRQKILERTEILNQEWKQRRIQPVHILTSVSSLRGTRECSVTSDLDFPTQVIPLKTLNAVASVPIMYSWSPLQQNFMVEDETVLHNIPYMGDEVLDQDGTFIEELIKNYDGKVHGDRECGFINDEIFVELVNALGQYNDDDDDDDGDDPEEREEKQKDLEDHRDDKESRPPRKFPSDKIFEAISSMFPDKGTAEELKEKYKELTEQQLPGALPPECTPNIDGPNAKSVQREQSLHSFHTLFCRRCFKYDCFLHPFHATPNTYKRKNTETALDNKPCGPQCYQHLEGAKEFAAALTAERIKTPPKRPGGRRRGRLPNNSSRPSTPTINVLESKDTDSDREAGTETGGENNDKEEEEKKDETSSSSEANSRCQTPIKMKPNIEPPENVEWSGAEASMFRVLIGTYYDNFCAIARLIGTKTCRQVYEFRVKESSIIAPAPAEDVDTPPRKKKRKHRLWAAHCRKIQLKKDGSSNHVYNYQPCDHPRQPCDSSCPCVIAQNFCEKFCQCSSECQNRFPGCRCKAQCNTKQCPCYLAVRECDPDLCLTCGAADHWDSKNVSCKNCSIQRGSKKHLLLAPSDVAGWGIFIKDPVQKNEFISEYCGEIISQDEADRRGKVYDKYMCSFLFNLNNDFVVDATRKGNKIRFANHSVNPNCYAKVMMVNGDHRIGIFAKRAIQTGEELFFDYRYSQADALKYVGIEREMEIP
Chain of EZH2 enzyme complex (O75530 whole entry partner): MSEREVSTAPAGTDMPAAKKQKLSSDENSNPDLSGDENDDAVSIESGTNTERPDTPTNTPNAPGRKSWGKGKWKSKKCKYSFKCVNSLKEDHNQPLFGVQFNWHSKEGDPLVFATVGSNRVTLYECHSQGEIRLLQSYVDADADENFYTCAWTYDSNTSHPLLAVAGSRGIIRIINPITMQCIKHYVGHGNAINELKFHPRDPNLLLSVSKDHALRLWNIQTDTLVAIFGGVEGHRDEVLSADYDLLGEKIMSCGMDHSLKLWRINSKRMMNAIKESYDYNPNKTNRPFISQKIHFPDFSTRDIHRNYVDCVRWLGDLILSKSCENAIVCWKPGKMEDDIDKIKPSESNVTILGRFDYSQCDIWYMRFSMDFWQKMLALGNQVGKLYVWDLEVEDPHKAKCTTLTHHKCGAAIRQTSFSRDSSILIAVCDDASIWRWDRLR
Chain of EZH2 enzyme complex (Q15022 whole entry partner): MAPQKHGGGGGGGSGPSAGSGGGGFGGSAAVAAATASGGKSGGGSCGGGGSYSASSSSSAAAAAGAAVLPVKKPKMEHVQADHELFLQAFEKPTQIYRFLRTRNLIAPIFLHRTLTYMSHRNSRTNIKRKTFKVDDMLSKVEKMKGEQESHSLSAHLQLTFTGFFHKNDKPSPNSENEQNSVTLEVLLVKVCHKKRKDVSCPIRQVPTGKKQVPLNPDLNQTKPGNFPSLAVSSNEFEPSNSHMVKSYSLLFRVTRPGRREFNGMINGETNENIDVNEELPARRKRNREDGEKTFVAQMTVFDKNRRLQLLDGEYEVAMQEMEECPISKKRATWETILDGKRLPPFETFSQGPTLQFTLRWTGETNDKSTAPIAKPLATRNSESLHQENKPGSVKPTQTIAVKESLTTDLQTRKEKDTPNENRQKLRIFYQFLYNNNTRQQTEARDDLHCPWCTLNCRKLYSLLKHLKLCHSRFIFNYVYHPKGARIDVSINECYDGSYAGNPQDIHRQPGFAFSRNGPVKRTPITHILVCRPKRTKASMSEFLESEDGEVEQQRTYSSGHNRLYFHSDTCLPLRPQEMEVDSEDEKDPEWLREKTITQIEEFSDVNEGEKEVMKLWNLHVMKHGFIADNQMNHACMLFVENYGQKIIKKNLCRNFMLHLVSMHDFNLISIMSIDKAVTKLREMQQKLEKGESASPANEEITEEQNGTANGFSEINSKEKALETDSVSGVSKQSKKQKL

Structure (SMILES) | IC50 (EZH2 enzyme complex) [nM] | IC50 (Pfeiffer; Homo sapiens, 168 h) [nM] | IC50 (WSU-DLCL2; Homo sapiens, WSUDLCL2, 168 h) [nM] | IC50 (Pfeiffer) [nM] | IC50 (WSU-DLCL2) [nM]
CCN(c1cc(O[C@H]2C[C@H](CN3C[C@@H](C)O[C@@H](C)C3)C2)cc(C(=O)NCc2c(C)cc(C)[nH]c2=O)c1C)C1CCOCC1 [Example 31, N-((4,6-dimethyl-2-oxo-1,2-dihydropyridin-3-yl)methyl)-5-(trans-3-((cis-2,6-dimethylmorpholinyl)methyl)cyclobutoxy)-3-(ethyl(tetrahydro-2H-pyran-4-yl)amino)-2-methylbenzamide] | 10 to 100 | < 50 | < 50 | – | –
CCN(c1cc(OC2CC(N3CCOCC3)C2)cc(C(=O)NCc2c(C)cc(C)[nH]c2=O)c1C)[C@H]1CC[C@H](N(C)CCOC)CC1 (stereo partly drawn) [Example 34, N-((4,6-dimethyl-2-oxo-1,2-dihydropyridin-3-yl)methyl)-3-(ethyl(trans-4-((2-methoxyethyl)(methyl)amino)cyclohexyl)amino)-2-methyl-5-(3-morpholinylcyclobutoxy)benzamide] | 10 to 100 | < 50 | 500 to 1000 | – | –
CCN(c1cc(O[C@H]2C[C@H](N3C[C@@H](C)O[C@@H](C)C3)C2)cc(C(=O)NCc2c(C)cc(C)[nH]c2=O)c1C)[C@H]1C[C@@H](C)O[C@@H](C)C1 [Example 35, N-((4,6-dimethyl-2-oxo-1,2-dihydropyridin-3-yl)methyl)-5-(trans-3-(cis-2,6-dimethylmorpholinyl)cyclobutoxy)-3-((cis-2,6-dimethyltetrahydro-2H-pyran-4-yl)(ethyl)amino)-2-methylbenzamide] | 10 to 100 | 50 to 500 | > 1000 | – | –
CCN(c1cc(O[C@H]2C[C@H](CN3CCCCC3)C2)cc(C(=O)NCc2c(C)cc(C)[nH]c2=O)c1C)C1CCOCC1 [Example 36, N-((4,6-dimethyl-2-oxo-1,2-dihydropyridin-3-yl)methyl)-3-(ethyl(tetrahydro-2H-pyran-4-yl)amino)-2-methyl-5-(trans-3-(piperidin-1-ylmethyl)cyclobutoxy)benzamide] | 10 to 100 | < 50 | 50 to 500 | – | –
CCN(c1cc(O[C@H]2C[C@H](N3CCC(C)CC3)C2)cc(C(=O)NCc2c(C)cc(C)[nH]c2=O)c1C)C1CCOCC1 [Example 37, N-((4,6-dimethyl-2-oxo-1,2-dihydropyridin-3-yl)methyl)-3-(ethyl(tetrahydro-2H-pyran-4-yl)amino)-2-methyl-5-(trans-3-(4-methylpiperidin-1-yl)cyclobutoxy)benzamide] | < 10 | < 50 | 50 to 500 | – | –
CCN(c1cc(O[C@H]2C[C@@H](N3C[C@@H](C)O[C@@H](C)C3)C2)cc(C(=O)NCc2c(C)cc(C)[nH]c2=O)c1C)[C@@H]1C[C@@H](C)O[C@@H](C)C1 [Example 38, N-((4,6-dimethyl-2-oxo-1,2-dihydropyridin-3-yl)methyl)-5-((1S,3S)-3-((2S,6R)-2,6-dimethylmorpholinyl)cyclobutoxy)-3-(((2R,4s,6S)-2,6-dimethyltetrahydro-2H-pyran-4-yl)(ethyl)amino)-2-methylbenzamide] | 100 to 1000 | 500 to 1000 | > 1000 | – | –
CCN(c1cc(O[C@H]2C[C@H](N3C[C@@H](C)O[C@@H](C)C3)C2)cc(C(=O)NCc2c(C)cc(C)[nH]c2=O)c1C)[C@@H]1C[C@@H](C)O[C@@H](C)C1 [Example 39, N-((4,6-dimethyl-2-oxo-1,2-dihydropyridin-3-yl)methyl)-5-(trans-3-(cis-2,6-dimethylmorpholinyl)cyclobutoxy)-3-((trans-2,6-dimethyltetrahydro-2H-pyran-4-yl)(ethyl)amino)-2-methylbenzamide] | 100 to 1000 | 500 to 1000 | > 1000 | – | –
CCN(c1cc(O[C@H]2C[C@H](N3C[C@@H](C)O[C@@H](C)C3)C2)cc(C(=O)NCc2c(C)cc(C)[nH]c2=O)c1C)C1CCOC1 (stereo partly drawn) [Example 46, N-((4,6-dimethyl-2-oxo-1,2-dihydropyridin-3-yl)methyl)-5-(trans-3-(cis-2,6-dimethylmorpholinyl)cyclobutoxy)-3-(ethyl(tetrahydrofuran-3-yl)amino)-2-methylbenzamide] | < 10 | 500 to 1000 | 50 to 500 | – | –
CCN(c1cc(O[C@H]2C[C@H](N3C[C@@H](C)O[C@@H](C)C3)C2)cc(C(=O)NCc2c(C)cc(C)[nH]c2=O)c1Cl)C1CCOCC1 [Example 48, 2-chloro-N-((4,6-dimethyl-2-oxo-1,2-dihydropyridin-3-yl)methyl)-5-(trans-3-(cis-2,6-dimethylmorpholinyl)cyclobutoxy)-3-(ethyl(tetrahydro-2H-pyran-4-yl)amino)benzamide] | 10 to 100 | > 1000 | 50 to 500 | – | –
CCN(c1cc(O[C@H]2C[C@H](N3CC4CCC(C3)O4)C2)cc(C(=O)NCc2c(C)cc(C)[nH]c2=O)c1Cl)C1CCOCC1 [Example 49, 5-(trans-3-(8-oxa-3-azabicyclo[3.2.1]octan-3-yl)cyclobutoxy)-2-chloro-N-((4,6-dimethyl-2-oxo-1,2-dihydropyridin-3-yl)methyl)-3-(ethyl(tetrahydro-2H-pyran-4-yl)amino)benzamide] | 10 to 100 | > 1000 | 50 to 500 | – | –
CCN(c1cc(O[C@H]2C[C@H](N3CCOCC3)C2)cc(C(=O)N(C)Cc2c(C)cc(C)[nH]c2=O)c1C)C1CCOCC1 [Example 51, N-((4,6-dimethyl-2-oxo-1,2-dihydropyridin-3-yl)methyl)-3-(ethyl(tetrahydro-2H-pyran-4-yl)amino)-N,2-dimethyl-5-(trans-3-morpholinylcyclobutoxy)benzamide] | 100 to 1000 | > 1000 | > 1000 | – | –
CCN(c1cc(O[C@H]2C[C@H](CN3C[C@@H](C)O[C@@H](C)C3)C2)cc(C(=O)NCc2c(C)cc(C)[nH]c2=O)c1Cl)C1CCOCC1 [Example 53, 2-chloro-N-((4,6-dimethyl-2-oxo-1,2-dihydropyridin-3-yl)methyl)-5-(trans-3-((cis-2,6-dimethylmorpholinyl)methyl)cyclobutoxy)-3-(ethyl(tetrahydro-2H-pyran-4-yl)amino)benzamide] | 10 to 100 | – | – | 500 to 1000 | 50 to 500
CCN(c1cc(O[C@H]2C[C@@H](N3CCC(C)CC3)C2)cc(C(=O)NCc2c(C)cc(C)[nH]c2=O)c1C)C1CCOCC1 [Example 56, N-((4,6-dimethyl-2-oxo-1,2-dihydropyridin-3-yl)methyl)-3-(ethyl(tetrahydro-2H-pyran-4-yl)amino)-2-methyl-5-(cis-3-(4-methylpiperidin-1-yl)cyclobutoxy)benzamide] | 10 to 100 | 50 to 500 | 50 to 500 | – | –
Cc1cc(C)c(CNC(=O)c2cc(O[C@H]3C[C@H](N4C[C@@H](C)O[C@@H](C)C4)C3)cc(NC3CCOCC3)c2C)c(=O)[nH]1 [Example 57, N-((4,6-dimethyl-2-oxo-1,2-dihydropyridin-3-yl)methyl)-5-(trans-3-(cis-2,6-dimethylmorpholino)cyclobutoxy)-2-methyl-3-((tetrahydro-2H-pyran-4-yl)amino)benzamide] | > 1000 | > 1000 | > 1000 | – | –
Cc1cc(C)c(CNC(=O)c2cc(O[C@H]3C[C@H](N4C[C@@H](C)O[C@@H](C)C4)C3)cc(NC3CCOC3)c2C)c(=O)[nH]1 (stereo partly drawn) [Example 58, N-((4,6-dimethyl-2-oxo-1,2-dihydropyridin-3-yl)methyl)-5-(trans-3-(cis-2,6-dimethylmorpholino)cyclobutoxy)-2-methyl-3-((tetrahydrofuran-3-yl)amino)benzamide] | > 1000 | > 1000 | > 1000 | – | –
